{
  "source": "ChEMBL document CHEMBL5500372",
  "about": "“Novel natural osthole-inspired amphiphiles as membrane targeting antibacterials against methicillin-resistant Staphylococcus aureus (MRSA)” (Eur J Med Chem, 2024)",
  "key": {"Staphylococcus aureus [1]": {"tested_on": "Staphylococcus aureus", "assay": "Antibacterial activity against methicillin-resistant Staphylococcus aureus clinical isolate 16 infected in female KM mouse skin abscess model assessed as reduction in TNF-alpha level at 5 to 10 mg/kg, sc measured after 24 hrs by ELISA method", "assay_type": "functional, organism-based", "details": "dose 5-10 mg/kg"}, "[2]": {"assay": "Toxicity in female KM mouse assessed as survival at 80 mg/kg, sc measured after 24 hrs", "assay_type": "organism-based", "details": "in vivo"}, "Cell membrane [3]": {"tested_on": "Cell membrane", "assay": "Disruption of cell membrane in methicillin-resistant Staphylococcus aureus clinical isolate 16 assessed as appearance of broken surface at 16 ug/ml measured after 4 hrs by SEM analysis", "assay_type": "cell membranes", "details": "dose 16.0 µg/ml"}, "[4]": {"assay": "Toxicity in female KM mouse assessed as effect on UREA at upto 20 mg/kg, sc measured after 24 hrs by biochemical test", "assay_type": "organism-based", "details": "in vivo"}, "[5]": {"assay": "Toxicity in female KM mouse assessed as effect on platelet count at upto 20 mg/kg, sc measured after 24 hrs", "assay_type": "organism-based", "details": "in vivo"}, "[6]": {"assay": "Cytotoxicity in human L02 cells assessed as survival rate at 16 ug/ml measured after 24 hrs by CCK-8 method relative to control", "assay_type": "toxicity, cell-based", "details": "at 16 µg/mL, read-out: Survival"}, "[7]": {"assay": "Toxicity in female KM mouse skin abscess model infected with methicillin-resistant Staphylococcus aureus clinical isolate 16 assessed as histological abnormalities in kidney at 5 to 10 mg/kg, sc measured after 24 hrs by H and E staining based analysis", "assay_type": "organism-based", "details": "in vivo, dose 5-10 mg/kg"}, "[8]": {"assay": "Toxicity in female KM mouse assessed as effect on histopathological abnormalities in heart at 20 mg/kg, sc measured after 24 hrs by H and E staining based analysis", "assay_type": "organism-based", "details": "in vivo"}, "[9]": {"assay": "Toxicity in female KM mouse skin abscess model infected with methicillin-resistant Staphylococcus aureus clinical isolate 16 assessed as effect on heart at 5 to 10 mg/kg, sc measured after 24 hrs by H and E staining based analysis", "assay_type": "organism-based", "details": "in vivo, dose 5-10 mg/kg"}, "Cell membrane [10]": {"tested_on": "Cell membrane", "assay": "Induction of cell membrane disruption in methicillin-resistant Staphylococcus aureus clinical isolate 16 assessed as intact cells (Q3 region) at 64 ug/ml measured after 2 hrs by SYTO-9 and PI staining based flow cytometry analysis (reference value: 96.0%)", "assay_type": "cell membranes", "details": "dose 64.0 µg/ml"}, "Cell membrane [11]": {"tested_on": "Cell membrane", "assay": "Disruption of cell membrane in methicillin-resistant Staphylococcus aureus clinical isolate 16 assessed as increase in DNA leakage incubated for 4 hrs by microspectrophotometric analysis", "assay_type": "cell membranes", "details": "dose <= 8.0 µg/ml"}, "[12]": {"assay": "Toxicity in female KM mouse assessed as effect on lung at 20 mg/kg, sc measured after 24 hrs by H and E staining based analysis", "assay_type": "organism-based", "details": "in vivo"}, "[13]": {"assay": "Toxicity in female KM mouse assessed as effect on hemoglobin at upto 20 mg/kg, sc measured after 24 hrs", "assay_type": "organism-based", "details": "in vivo"}, "Staphylococcus aureus [14]": {"tested_on": "Staphylococcus aureus", "assay": "Antibacterial activity against methicillin-resistant Staphylococcus aureus clinical isolate 16 infected in female KM mouse skin abscess model assessed as effect on skin lesions at 10 mg/kg, sc measured after 24 hrs", "assay_type": "functional, organism-based"}, "Staphylococcus aureus [15]": {"tested_on": "Staphylococcus aureus", "assay": "Antibacterial activity against methicillin-resistant Staphylococcus aureus clinical isolate 13 measured after 18 hrs by CLSI based broth microdilution method", "assay_type": "functional"}, "Staphylococcus aureus [16]": {"tested_on": "Staphylococcus aureus", "assay": "Antibacterial activity against methicillin-resistant Staphylococcus aureus clinical isolate 16 infected in female KM mouse skin abscess model assessed as log reduction in bacterial load at 5 mg/kg, sc measured after 24 hrs (reference value: 8.508 log10CFU/g)", "assay_type": "functional"}, "[17]": {"assay": "Toxicity in female KM mouse assessed as effect on histopathological abnormalities in spleen at 20 mg/kg, sc measured after 24 hrs by H and E staining based analysis", "assay_type": "organism-based", "details": "in vivo"}, "Cell membrane [18]": {"tested_on": "Cell membrane", "assay": "Disruption of cell membrane in methicillin-resistant Staphylococcus aureus clinical isolate 16 assessed as increase in red fluorescence at 8 times MIC measured after 4 hrs by DAPI and PI staining based laser confocal microscopy based analysis", "assay_type": "cell membranes"}, "[19]": {"assay": "Toxicity in female KM mouse skin abscess model infected with methicillin-resistant Staphylococcus aureus clinical isolate 16 assessed as effect on spleen at 5 to 10 mg/kg, sc measured after 24 hrs by H and E staining based analysis", "assay_type": "organism-based", "details": "in vivo, dose 5-10 mg/kg"}, "Staphylococcus aureus [20]": {"tested_on": "Staphylococcus aureus", "assay": "Antibacterial activity against methicillin-resistant Staphylococcus aureus clinical isolate 16 infected in female KM mouse skin abscess model assessed as effect on abscess in back skin at 5 mg/kg, sc measured after 24 hrs", "assay_type": "functional, organism-based"}, "Staphylococcus aureus [21]": {"tested_on": "Staphylococcus aureus", "assay": "Antibacterial activity against methicillin-resistant Staphylococcus aureus clinical isolate 16 infected in female KM mouse skin abscess model assessed as effect on skin abscess at 10 mg/kg, sc measured after 24 hrs", "assay_type": "functional, organism-based"}, "[22]": {"assay": "Toxicity in female KM mouse assessed as redness in skin at 40 to 80 mg/kg, sc measured after 24 hrs", "assay_type": "organism-based", "details": "in vivo, dose 40-80 mg/kg"}, "Cell membrane [23]": {"tested_on": "Cell membrane", "assay": "Disruption of cell membrane in methicillin-resistant Staphylococcus aureus clinical isolate 16 assessed as increase in intracellular ROS level incubated for 50 mins by DCFH-DA staining based fluorescence assay", "assay_type": "cell membranes"}, "Cell membrane [24]": {"tested_on": "Cell membrane", "assay": "Induction of cytoplasmic membrane depolarization in methicillin-resistant Staphylococcus aureus clinical isolate 16 assessed as fold increase in fluorescence intensity at 32 time MIC measured after 35 mins by DiSC3-5 dye based fluorescence method"}, "[25]": {"assay": "Toxicity in female KM mouse skin abscess model infected with methicillin-resistant Staphylococcus aureus clinical isolate 16 assessed as histological abnormalities in lung at 5 to 10 mg/kg, sc measured after 24 hrs by H and E staining based analysis", "assay_type": "organism-based", "details": "in vivo, dose 5-10 mg/kg"}, "Cell membrane [26]": {"tested_on": "Cell membrane", "assay": "Induction of cytoplasmic membrane permeabilization in methicillin-resistant Staphylococcus aureus clinical isolate 16 assessed as fold increase in fluorescence intensity at 32 time MIC measured after 35 mins by SYTOX green dye based fluorescence analysis"}, "Staphylococcus aureus [27]": {"tested_on": "Staphylococcus aureus", "assay": "Antibacterial activity against methicillin-resistant Staphylococcus aureus clinical isolate 22 measured after 18 hrs by CLSI based broth microdilution method", "assay_type": "functional"}, "Staphylococcus aureus [28]": {"tested_on": "Staphylococcus aureus", "assay": "Antibacterial activity against methicillin-resistant Staphylococcus aureus clinical isolate 23 measured after 18 hrs by CLSI based broth microdilution method", "assay_type": "functional"}, "[29]": {"assay": "Hemolytic activity in sheep erythrocyte assessed as hemolysis incubated for 1 hr by absorbance based analysis", "assay_type": "toxicity, cell-based, Ovis aries", "details": "sheep erythrocytes"}, "[30]": {"assay": "Toxicity in female KM mouse assessed as effect on back skin at 20 mg/kg, sc measured after 24 hrs by H and E staining based analysis", "assay_type": "organism-based", "details": "in vivo"}, "Staphylococcus aureus [31]": {"tested_on": "Staphylococcus aureus", "assay": "Bactericidal activity against Staphylococcus aureus ATCC 29213 assessed as eradication of bacteria at 8 times MIC measured after 4 hrs by time-kill assay relative to control", "assay_type": "functional"}, "Staphylococcus aureus [32]": {"tested_on": "Staphylococcus aureus", "assay": "Antibacterial activity against methicillin-resistant Staphylococcus aureus clinical isolate 17 measured after 18 hrs by CLSI based broth microdilution method", "assay_type": "functional"}, "[33]": {"assay": "Toxicity in female KM mouse assessed as effect on red blood cell at upto 20 mg/kg, sc measured after 24 hrs", "assay_type": "organism-based", "details": "in vivo"}, "[34]": {"assay": "Toxicity in female KM mouse assessed as effect on histopathological abnormalities in liver at 20 mg/kg, sc measured after 24 hrs by H and E staining based analysis", "assay_type": "organism-based", "details": "in vivo"}, "Staphylococcus aureus [35]": {"tested_on": "Staphylococcus aureus", "assay": "Antibacterial activity against methicillin-resistant Staphylococcus aureus clinical isolate 11 measured after 18 hrs by CLSI based broth microdilution method", "assay_type": "functional"}, "[36]": {"assay": "Toxicity in female KM mouse assessed as effect on white blood cell at upto 20 mg/kg, sc measured after 24 hrs", "assay_type": "organism-based", "details": "in vivo"}},
  "note": "Calls of active or inactive are those of the source. The rule behind the calls is not given here.",
  "data": [
    {"smiles": "CCCCCCNC(=O)C[N+](C)(C)CCCCCOc1ccc2ccc(=O)oc2c1CC=C(C)C.[Br-]", "values": [
      {"measurement": "Activity", "setting": "Staphylococcus aureus [1]", "value": "Active"},
      {"measurement": "Activity", "setting": "[2]", "value": "Non-Toxic"},
      {"measurement": "Activity", "setting": "Cell membrane [3]", "value": "Active"},
      {"measurement": "Activity", "setting": "[4]", "value": "Non-Toxic"},
      {"measurement": "Activity", "setting": "[5]", "value": "Non-Toxic"},
      {"measurement": "viability at 24 h, 16 ug/ml", "setting": "[6]", "value": 60, "unit": "%"},
      {"measurement": "Activity", "setting": "[7]", "value": "Non-Toxic"},
      {"measurement": "Activity", "setting": "[8]", "value": "Non-Toxic"},
      {"measurement": "Activity", "setting": "[9]", "value": "Non-Toxic"},
      {"measurement": "Activity", "setting": "Cell membrane [10]", "value": 0, "unit": "%"},
      {"measurement": "Activity", "setting": "Cell membrane [11]", "value": "Dose-Dependent Effect"},
      {"measurement": "Activity", "setting": "[12]", "value": "Non-Toxic"},
      {"measurement": "Activity", "setting": "[13]", "value": "Non-Toxic"},
      {"measurement": "Activity", "setting": "Staphylococcus aureus [14]", "value": "inactive"},
      {"measurement": "MIC", "setting": "Staphylococcus aureus [15]", "value": 2, "unit": "µg/mL"},
      {"measurement": "Activity", "setting": "Staphylococcus aureus [16]", "value": 2.962, "unit": "log10CFU/g"},
      {"measurement": "Activity", "setting": "[17]", "value": "Non-Toxic"},
      {"measurement": "Activity", "setting": "Cell membrane [18]", "value": "Active"},
      {"measurement": "Activity", "setting": "[19]", "value": "Non-Toxic"},
      {"measurement": "Activity", "setting": "Staphylococcus aureus [20]", "value": "Active"},
      {"measurement": "Activity", "setting": "Staphylococcus aureus [21]", "value": "inactive"},
      {"measurement": "Activity", "setting": "[22]", "value": "Toxic"},
      {"measurement": "Activity", "setting": "Cell membrane [23]", "value": "Dose-Dependent Effect"},
      {"measurement": "fold change (FC)", "setting": "Cell membrane [24]", "value": 5},
      {"measurement": "Activity", "setting": "[25]", "value": "Non-Toxic"},
      {"measurement": "fold change (FC)", "setting": "Cell membrane [26]", "value": 50},
      {"measurement": "MIC", "setting": "Staphylococcus aureus [27]", "value": 1, "unit": "µg/mL"},
      {"measurement": "MIC", "setting": "Staphylococcus aureus [28]", "value": 2, "unit": "µg/mL"},
      {"measurement": "HC50 at 1 h", "setting": "[29]", "value": 1040, "unit": "µg/mL"},
      {"measurement": "Activity", "setting": "[30]", "value": "Non-Toxic"},
      {"measurement": "Activity", "setting": "Staphylococcus aureus [31]", "value": 100, "unit": "%"},
      {"measurement": "MIC", "setting": "Staphylococcus aureus [32]", "value": 1, "unit": "µg/mL"},
      {"measurement": "Activity", "setting": "[33]", "value": "Non-Toxic"},
      {"measurement": "Activity", "setting": "[34]", "value": "Non-Toxic"},
      {"measurement": "MIC", "setting": "Staphylococcus aureus [35]", "value": 1, "unit": "µg/mL"},
      {"measurement": "Activity", "setting": "[36]", "value": "Non-Toxic"}
    ]}
  ]
}
